Reference: patent US10676442B2, “Salt derivative of tetrahydroisoquinoline and crystalline thereof and preparation method therefore and application thereof” (CHINA STATE INSTITUTE OF PHARMACEUTICAL INDUSTRY, priority 2016, dated 2020)
In brackets after ≈: the same amount, converted by molar mass. Entries after “also recorded” stand apart in the source; their conditions may differ. Where a name gives a salt, the structure may show the parent alone. Read-outs that look alike come from different tables or passages of the source.

Columns and labels:
[1] = Measurement of solubility in water by liquid chromatography; format: physicochemical; settings: for Solubility in water / solubility at 12 h: saturated solution shaken 12 hrs at 30° C., HPLC, in water; for solubility at 12 h: thermodynamic from solid; for Solubility in water compared to SIPI-409 and SIPI-409 hydrochloride: in words
Description: Solubility of SIPI-409 and of the salt derivatives thereof in water was measured by liquid chromatography.
Main steps: preparing SIPI-409 standards at the concentrations of 5 ? g/mL, 10 ? g/mL, 50 ? g/mL, 100 ? g/mL, 200 ? g/mL and establishing the standard curve of these preparations.
Chromatography Conditions:
Chromatography column: Phenomenex Luna 5u C18(2) 100 A 4.6×200 mm
Detection wave-length: 210 nm
Mobile phase: acetonitrile/phosphate buffer (0.68 g/L monopotassium phosphate, pH was adjusted to 3.0 using triethylamine)=68/32
Column temperature: 30° C.
Load volume: 10 ? L
Residence time: around 6.3 min
Sample treatment: the test samples were prepared into saturated solutions in water (suspensions) and shaken for 12 hrs at 30° C., which were further ultrasonicated for 30 s, followed by filtration and preparation of serial dilutions as appropriate, which were then analyzed by HPLC.

[2] = Light stability investigation (light incubator, XRPD); format: physicochemical; settings: XRPD on day 0, 5, 10, 20 and 30
Description: The phosphate, nicotinate, glycolate, oxalate, orotate, benzenesulfonate and sulfate of SIPI-409 were placed in a light incubator. XRPD measurements were carried out on samples taken out on day 0, 5, 10, 20 and 30.

[3] = Temperature stability investigation (60° C. oven, XRPD); format: physicochemical; settings: oven at 60° C., XRPD on day 0, 5, 10, 20 and 30
Description: Phosphate, nicotinate, glycolate, oxalate, orotate, benzenesulfonate and sulfate of SIPI-409 were placed in an oven at 60° C. XRPD measurements were carried out on samples taken out on day 0, 5, 10, 20 and 30.

[4] = Humidity stability investigation (92.5% RH, XRPD); format: physicochemical; settings: 92.5% RH (saturated KNO3), XRPD on day 0, 5, 10, 20 and 30
Description: The phosphate, nicotinate, glycolate, oxalate, orotate, benzenesulfonate and sulfate of SIPI-409 were kept in a 92.5% RH (saturated KNO3) atomosphere. XRPD measurements were carried out on samples taken out on day 0, 5, 10, 20 and 30.

[5] = Hygroscopicity investigation (dynamic vapor sorption); format: physicochemical; settings: dynamic vapor sorption analyzer
Text: Hygroscopicity was further investigated by placing the phosphate, nicotinate, glycolate, oxalate, orotate, benzenesulfonate and sulfate of SIPI-409 in a dynamic vapor sorption (DVS) analyzer.

[6] = Preliminary pharmacokinetic studies (background); format: in vivo, SD rats; settings: for bioavailability: rat, plasma, oral administration, SD rats
Text: This can be explained by the excessively low solubility of the salt.

[7] = Pharmacokinetic study, single oral dose in SD rats (LC-MS/MS of plasma); format: in vivo; settings: PO 10 mg/kg (based on SIPI-409), single dose
Description: SIPI-409 hydrochloride and SIPI-409 phosphate were administrated peros (PO), and were studied on in vivo pharmacokinetic parameters and bioavailability in SD rats. Concentrations of SIPI-409 hydrochloride and SIPI-409 phosphate in plasma were measured at intervals using Liquid Chromatography-Mass Spectrometry-Mass Spectrometry assay.
The obtained plasma concentration data were processed using the pharmacokinetic processing software WinNonlin 5.2 to calculate the relevant pharmacokinetic parameters according to non-compartmental model.

COc1cc2c(cc1OCc1ccccc1)C(Cc1cccc(NS(C)(=O)=O)c1)NCC2 (stereo not drawn) [SIPI-409 Fumarate, 1-(3-methanesulfonamidobenzyl)-6-methoxy,7-benzyloxy-1,2,3,4-tetrahydroisoquinoline]
Solubility in water [1]: 0.12 mg/mL

COc1cc2c(cc1OCc1ccccc1)C(Cc1cccc(NS(C)(=O)=O)c1)NCC2 (stereo not drawn) [SIPI-409 Ethionate, 1-(3-methanesulfonamidobenzyl)-6-methoxy,7-benzyloxy-1,2,3,4-tetrahydroisoquinoline]
Solubility in water [1]: 0.44 mg/mL (≈ 972 µM)

COc1cc2c(cc1OCc1ccccc1)C(Cc1cccc(NS(C)(=O)=O)c1)NCC2 (stereo not drawn) [SIPI-409 Benzenesulfonate, 1-(3-methanesulfonamidobenzyl)-6-methoxy,7-benzyloxy-1,2,3,4-tetrahydroisoquinoline]
Stability Light [2]: Stable
Stability 60° C. [3]: Stable
solubility at 12 h ([1]; read-out: Solubility): 3210 µM
solubility at 12 h ([1]; read-out: Solubility in water): 1.96 mg/mL
Stability 92.5% RH [4]: Hygroscopic
DVS Max Hygroscopicity [5]: 4.5%

COc1cc2c(cc1OCc1ccccc1)C(Cc1cccc(NS(C)(=O)=O)c1)NCC2 (stereo not drawn) [SIPI-409 Hydrochloride, 1-(3-methanesulfonamidobenzyl)-6-methoxy,7-benzyloxy-1,2,3,4-tetrahydroisoquinoline, reference compound]
t1/2 of injection ([6]; injection, compared with Sotalol): close to that of Sotalol
bioavailability [6]: 24%
Solubility in water [1]: 0.51 mg/mL
Tmax [7]: 0.33 h
AUC(0-t) ([7]; 10 mg/kg): 0.48288 µg·h/mL
AUC(0-∞) ([7]; 10 mg/kg): 0.50382 µg·h/mL
Cmax ([7]; 10 mg/kg): 0.19196 µg/mL
F (bioavailability) ([7]; 10 mg/kg): 24.63%
t1/2 ([7]; 10 mg/kg): 1.8 h

COc1cc2c(cc1OCc1ccccc1)C(Cc1cccc(NS(C)(=O)=O)c1)NCC2 (stereo not drawn) [SIPI-409 Hydrobromate, 1-(3-methanesulfonamidobenzyl)-6-methoxy,7-benzyloxy-1,2,3,4-tetrahydroisoquinoline]
Solubility in water [1]: 0.44 mg/mL (≈ 972 µM)

COc1cc2c(cc1OCc1ccccc1)C(Cc1cccc(NS(C)(=O)=O)c1)NCC2 (stereo not drawn) [SIPI-409 Nicotinate, 1-(3-methanesulfonamidobenzyl)-6-methoxy,7-benzyloxy-1,2,3,4-tetrahydroisoquinoline]
Stability Light [2]: Stable
Stability 60° C. [3]: less stable against heat and degraded since day 5; also recorded: Instable
Solubility in water [1]: 4.26 mg/mL (≈ 9410 µM)
Solubility in water compared to SIPI-409 and SIPI-409 hydrochloride [1]: significantly increased solubility in water
Stability 92.5% RH [4]: Hygroscopic
DVS Max Hygroscopicity [5]: 4.5%

COc1cc2c(cc1OCc1ccccc1)C(Cc1cccc(NS(C)(=O)=O)c1)NCC2 (stereo not drawn) [SIPI-409 Tartarate, 1-(3-methanesulfonamidobenzyl)-6-methoxy,7-benzyloxy-1,2,3,4-tetrahydroisoquinoline]
Solubility in water [1]: 0.22 mg/mL (≈ 486 µM)

CC(C)NCC(O)c1ccc(NS(C)(=O)=O)cc1 (stereo not drawn) [Sotalol]
bioavailability [6]: 70%

COc1cc2c(cc1OCc1ccccc1)C(Cc1cccc(NS(C)(=O)=O)c1)NCC2 (stereo not drawn) [SIPI-409 Sulfate, 1-(3-methanesulfonamidobenzyl)-6-methoxy,7-benzyloxy-1,2,3,4-tetrahydroisoquinoline]
Stability Light [2]: Stable
Stability 60° C. [3]: Stable
Solubility in water [1]: 5.76 mg/mL
Solubility in water compared to SIPI-409 and SIPI-409 hydrochloride [1]: significantly increased solubility in water
Stability 92.5% RH [4]: Hygroscopic
DVS Max Hygroscopicity [5]: 5.2%

COc1cc2c(cc1OCc1ccccc1)C(Cc1cccc(NS(C)(=O)=O)c1)NCC2 (stereo not drawn) [SIPI-409, 1-(3-methanesulfonamidobenzyl)-6-methoxy,7-benzyloxy-1,2,3,4-tetrahydroisoquinoline, reference compound]
Solubility in water [1]: 0.07 mg/mL (≈ 155 µM)

COc1cc2c(cc1OCc1ccccc1)C(Cc1cccc(NS(C)(=O)=O)c1)NCC2 (racemic) [SIPI-409 Malate, 1-(3-methanesulfonamidobenzyl)-6-methoxy,7-benzyloxy-1,2,3,4-tetrahydroisoquinoline]
solubility at 12 h ([1]; water, 30 °C, water, read-out: Solubility): 650 µM
solubility at 12 h ([1]; water, 30 °C, water, read-out: Solubility in water): 0.38 mg/mL

COc1cc2c(cc1OCc1ccccc1)C(Cc1cccc(NS(C)(=O)=O)c1)NCC2 (stereo not drawn) [SIPI-409 Orotate, 1-(3-methanesulfonamidobenzyl)-6-methoxy,7-benzyloxy-1,2,3,4-tetrahydroisoquinoline]
Stability Light [2]: Stable
Stability 60° C. [3]: Stable
Solubility in water [1]: 1.93 mg/mL (≈ 4260 µM)
Solubility in water compared to SIPI-409 and SIPI-409 hydrochloride [1]: significantly increased solubility in water
Stability 92.5% RH [4]: Stable
DVS Max Hygroscopicity [5]: 1.1%

COc1cc2c(cc1OCc1ccccc1)C(Cc1cccc(NS(C)(=O)=O)c1)NCC2 (stereo not drawn) [SIPI-409 Oxalate, 1-(3-methanesulfonamidobenzyl)-6-methoxy,7-benzyloxy-1,2,3,4-tetrahydroisoquinoline]
Stability Light [2]: Stable
Stability 60° C. [3]: Stable
Solubility in water [1]: 3.52 mg/mL
Solubility in water compared to SIPI-409 and SIPI-409 hydrochloride [1]: significantly increased solubility in water
Stability 92.5% RH [4]: Hygroscopic
DVS Max Hygroscopicity [5]: 9.5%

COc1cc2c(cc1OCc1ccccc1)C(Cc1cccc(NS(C)(=O)=O)c1)NCC2 (stereo not drawn) [SIPI-409 Glycolate, 1-(3-methanesulfonamidobenzyl)-6-methoxy,7-benzyloxy-1,2,3,4-tetrahydroisoquinoline]
Stability Light [2]: Stable
Stability 60° C. [3]: Stable
Solubility in water [1]: 3.21 mg/mL (≈ 7090 µM)
Solubility in water compared to SIPI-409 and SIPI-409 hydrochloride [1]: significantly increased solubility in water
Stability 92.5% RH [4]: Stable
DVS Max Hygroscopicity [5]: 0.8%

COc1cc2c(cc1OCc1ccccc1)C(Cc1cccc(NS(C)(=O)=O)c1)NCC2 (stereo not drawn) [SIPI-409 Succinate, 1-(3-methanesulfonamidobenzyl)-6-methoxy,7-benzyloxy-1,2,3,4-tetrahydroisoquinoline]
Solubility in water [1]: 0.16 mg/mL
